The values below come from patent US20240350464A1, “METHODS OF TREATING NEUROLOGICAL, MUSCULAR, AND PROLIFERATIVE DISORDERS” (Elixira Pharma AG, priority 2023, published 2024).

Holding throughout (type): in vivo, Caenorhabditis elegans
The test system of series [1] is N2 wild type worms. Nature of the series: Microfluidic reproduction monitoring (egg laying start/end, reproductive span, eggs laid). The note with it: for Eggs laid (#): average number of eggs laid per worm within the timespan of egg laying; for Eggs laid (#) / Egg laying end / Reproductive span: concentrations per Table 2; for Egg laying start: time from injection of L4 larvae until first egg, continuous exposure, concentrations per Table 2 (Cpd 1 100 μM, Cpd 2 25 mM); for Egg laying start / Egg laying end / Reproductive span: mean; for Egg laying end: time from injection of L4 larvae until last egg; for Reproductive span: timespan of egg laying; for Variation (%) of egg laying end (time of the last egg laid) / Variation (%) of egg laying start / Variation (%) of eggs laid / Variation (%) of reproductive span (timespan of egg laying): vs negative control DMSO 1%. As to the method: (§1) For the purpose of this study, the two compounds and four combinations of the two compounds were tested on a microfluidic platform. Worms were injected at the L4 larval stage, confined in dedicated microfluidic chambers, and continuously subjected to the presence of the two compounds, alone or in combination, from the L4 larval stage to the end of the experiment (corresponding to the day when the worm is dead). Acquisition of short sequences of videos for each microfluidic chamber containing worms were executed automatically every six (6) hours during the duration of the assay. The measurement of the motility, as well as the worm size to address compound toxicity (1) and the reproduction assessing longevity (2), were performed on the acquired sequences of videos by using an algorithm (3,4). Dead/live worms were identified automatically, based on the motility parameters. Each condition was tested in four technical replicates on different microfluidic cartridges. The experiment was performed once.
(§2) The proposed study was conducted according to the design and timeline depicted in FIG. 1. N2 wild-type C. elegans were grown on solid nematode growth medium (NGM) agar plates until the adult stage and harvested in complete S-Medium. Eggs from the adult population were hatched overnight in S-Medium and the resulting L1 progeny was recovered with a dedicated filter. L1 larvae were then collected through filtering in S-medium, seeded on NGM agar plates and grown for 48 hours (h) at 20° C. […] L4 larvae were then collected through filtering in 5 mL S-medium. 20 to 30 L4 were injected in the microfluidic chips for each condition. Worms were then continuously fed on-chip via bacterial medium, for the duration of the entire experiment. Videos of each micro-chamber were acquired after the feeding during the whole experiment, every 6 hours.
(§3) The two compounds, Compound 1 and Compound 2, were suspended in DMSO at the stock concentration of 100 mM and 2.5 M, respectively (Table 1). Compounds were then mixed with the bacterial medium at the targeted concentrations, alone or in combination (Table 2). For all tested conditions, the final vehicle (DMSO) concentration was 1%. For the negative control condition, nematodes were fed with a bacterial medium containing only the vehicle solution (DMSO 1%). All stock solutions were stored at −20° C. and dilutions were made freshly on the day of starting the on-chip experiment and then every 72 h to replace the compound/bacterial medium solutions.
Five time-resolved phenotypic readouts were extracted during the assays, including: • Worm size (area): this parameter was measured to evaluate the potential effects of the tested compound on growth retardation or larval arrest phenotype (7). • Sexual maturity: this parameter was measured to evaluate the potential effects of the tested compound on the timing required by a worm to reach the sexual maturity, determined by the observation of the first embryo (i.e., egg) produced in each microfluidic chamber.
Bar graphs represent mean+/−sem. p values were obtained by comparing the negative control (blue bars) versus the treatment via One-way ANOVA followed by Bonferroni's multiple comparisons test (p<0.05). * statistics versus the negative control (DMSO 1%).

Series [2] deals with N2 wild type worms. In words: Microfluidic growth monitoring (worm size, area). The settings on record: for effect on the worm's size (in words): vs negative control; for Variation (%) of worm area AUC: vs negative control DMSO 1%. As to the method:
as §1
The proposed study was conducted according to the design and timeline depicted in FIG. 1. N2 wild-type C. elegans were grown on solid nematode growth medium (NGM) agar plates until the adult stage and harvested in complete S-Medium. Eggs from the adult population were hatched overnight in S-Medium and the resulting L1 progeny was recovered with a dedicated filter. L1 larvae were then collected through filtering in S-medium, seeded on NGM agar plates and grown for 48 hours (h) at 20° C. After 48 h, the worm population had reached the L4 larval stage. […]
Five time-resolved phenotypic readouts were extracted during the assays, including: • Worm size (area): this parameter was measured to evaluate the potential effects of the tested compound on growth retardation or larval arrest phenotype (7). • Sexual maturity: this parameter was measured to evaluate the potential effects of the tested compound on the timing required by a worm to reach the sexual maturity, determined by the observation of the first embryo (i.e., egg) produced in each microfluidic chamber. This phenotype was also indicative for a general sterility phenotype (i.e., no egg produced) (7). • Worm fertility: this parameter was measured to evaluate the potential effects of the tested compound on the average number of eggs produced by each worm during the reproductive span, calculated via the images acquired during the assay (7). • Reproductive span: this parameter was measured to evaluate the potential effects of the tested compound on the duration in which the worms have reproductive ability, determined by the observation of the last embryo produced in each microfluidic chamber. • Worm longevity: this parameter was measured to evaluate the potential effects of the tested compound on the worm's survival. […]

For series [3], the system named is N2 wild type worms. Nature of the series: Microfluidic motility monitoring (head, midbody, tail amplitude, bending frequency, velocity). The note with it: vs negative control; for overall motility: all motility parameters improved, in average: all 5 parameters. As to the method: as §1, §2, §3
Worm motility is an additional phenotypic readout, where five parameters of the motility were assessed every 6 hours from acquired videos (2 seconds long, 10 frames per second for each video). At each time point, the values recorded for dead worms were excluded. The five motility parameters monitored included (3): • the amplitude of the movement at the head • the amplitude of the movement at the middle of the worm body • the amplitude of tail movement • the worm bending frequency • the worm velocity
These motility parameters were analyzed by phases (Area Under the Curve calculation following by an 2-way ANOVA tests), as defined below: • Phase 1: from day 1 to day 5 • Phase 2: from day 6 to day 10 • Phase 3: from day 11 to day 15 • Phase 4: from day 16 to day 20

Turning to `CO[C@H]1C[C@@H]2CC[C@@H](C)[C@@](O)(O2)C(=O)C(=O)N2CCCC[C@H]2C(=O)O[C@H]([C@H](C)C[C@@H]2CC[C@@H](O)[C@H](OC)C2)CC(=O)[C@H](C)/C=C(\C)[C@@H](O)[C@@H](OC)C(=O)[C@H](C)C[C@H](C)/C=C/C=C/C=C/1C` [Cpd 1, rapamycin], in the series with N2 wild type worms [1], the “Eggs laid (#)” value is 96.6 #, the “Egg laying start” value amounted to 29.59 h, the “Egg laying end” value came out at 144.0 h and the “Reproductive span” value worked out at 114.4 h. Moreover, in the series with N2 wild type worms [1], the “Variation (%) of egg laying end (time of the last egg laid)” value is recorded as −3.1%, the “Variation (%) of egg laying start” value is −3.2%, the “Variation (%) of eggs laid” value is reported as −32.9% and the “Variation (%) of reproductive span (timespan of egg laying)” value is listed as −3.1%. Further, in the series on N2 wild type worms [2], the “effect on the worm's size (in words)” value is on record as “significant improvement” and the “Variation (%) of worm area AUC” value is “+0.8%”. Moreover, the “overall motility: all motility parameters improved, in average” value in the series with N2 wild type worms [3] was 14%.
Turning to `CN(C)C(=N)N=C(N)N` [Cpd 2, metformin], in the series on N2 wild type worms [1], the “Eggs laid (#)” value is recorded as 94.9 #, the “Egg laying start” value came to 29.63 h, the “Egg laying end” value is 152.7 h and the “Reproductive span” value is 123.1 h. Moreover, in the series on N2 wild type worms [1], the “Variation (%) of egg laying end (time of the last egg laid)” value is “+2.8%”, the “Variation (%) of egg laying start” value is recorded as −3.1%, the “Variation (%) of eggs laid” value was −34.1% and the “Variation (%) of reproductive span (timespan of egg laying)” value is given as “+4.3%”. Also, in the series with N2 wild type worms [2], the “effect on the worm's size (in words)” value is reported as “significant decrease” and the “Variation (%) of worm area AUC” value is given as −3.3%. For the same molecule, in the series with N2 wild type worms [3] (Phase 1 (D0 to D5)), the “motility in Phase 1 (in words)” value was “significant increase in almost all the motility parameters”. In addition, the “motility in Phase 2 (in words)” value in the series on N2 wild type worms [3] (Phase 2 (D6 to D10)) is listed as “significant increase in almost all the motility parameters”. Also, the “motility in Phase 3 (in words)” value in the series on N2 wild type worms [3] (Phase 3 (D11 to D15)) is given as “No effect on the motility”. For the same molecule, the “motility in Phase 4 (in words)” value in the series on N2 wild type worms [3] (Phase 4 (D16 to D20)) is “No effect on the motility”. Besides, the “overall motility: all motility parameters improved, in average” value with N2 wild type worms [3] was 22%. The “overall motility of the worms (in words)” value in the series on N2 wild type worms [3] (2-way ANOVA) is reported as “significantly increased”.
